{"source": "patent US10045984B2", "about": "“Combination therapy” (priority 2008, dated 2018)", "key": {"[1]": {"tested_on": "Influenza A, B and Rhino virus", "assay": "Group B randomized double blind trial in uncomplicated viral upper respiratory tract infection, with case reports", "format": "in vivo, human", "conditions": "for clinical state at day 5 after starting treatment: n=5 per group; for clinical state: influenza type B", "source_text": "RT-PCR (reverse transcriptase-PCR) was used for subtyping and for detection of rhinovirus. RT-PCR is done on swabs. In the case of the patient groups, RT-PCR determined the presence of subtypes influenza H3, rhino virus and RSV. IFA and RT-PCR was repeated after treatment to ensure viral eradication from the patient.\nGroup B patients included 20 patients, aged 19 years to 57 years, 14 men and 6 women, with influenza but uncomplicated upper airway infection. […] The viruses identified were Influenza A, B and Rhino virus.\nOn day 3-5 of the illness (influenza) they received either a zinc/trimethoprim mixture, zinc, trimethoprim alone or vitamin C alone in a randomized double blind trial. The subjects were reviewed at 2 and 5 days after starting treatment.\nThe Tri-Z dose ranged between 100 mg (82 mg Tri and 18 mg zinc) to 200 mg (164 mg Tri and 36 mg zinc) twice daily. Trimethoprim only was administered in quantities of between 100 mg and 200 mg twice daily. Zinc only was administered in quantities of 50 mg three times daily. Vitamin C was administered in 1 g quantities twice daily.\nPoints on the graph shown in FIG. 6 are group means (for n=5) which highlights the difference in illness duration. […] Repeat IFA and RT-PCR tests were negative by day 2.\n(i) person presented with headache, no photophobia, body ache, feeling tired and lethargic, blocked runny nose, dry throat and feeling hot for the last 4 days. Temperature was 38.5 C, respiratory rate 18/min, heart rate 75/min regular, BP 115/70 mmHg, clear nasal discharge, blood shot eyes, clear throat. Chest was clear with normal breath sounds. No cervical lymph nodes.\nNasal aspirate and throat swab was taken for virus and bacteria. […] Cultures were negative for bacterial growth at 48 and 72 hours.\nThey were commenced on the zinc/trimethoprim mixture twice daily (initial dose 200 mg of trimethoprim and 100 mg zinc sulphate for first dose then reduced to 100 mg of trimethoprim and 50 mg of zinc sulphate given simultaneously on an empty stomach) for 5 days.\n(ii) person presented with body ache, generally feeling tired, blocked runny nose, sore eyes, dry throat, headache and feeling hot for the last 4 days. Their temperature was 38 C. Their chest was clear with normal breath sounds. Respiratory rate 16/min, heart rate 84/min regular, BP 135/78 mmhg. Nasal aspirate and throat swabs was taken for virus and bacteria.\nBacterial culture at 48 and 72 hours were negative.\n(iii) person presented with feeling hot, blocked nose that is runny, headache, body ache, dry cough, sore eyes for last 4 days.\nTemperature was 38.5 C, heart rate 60/min, respiratory rate 16/min, BP 120/70 mmHg, chest clear with normal breath sounds, no lymphadenopathy, conjunctival congestion, throat clear.\nNasal aspirate and throat swab were taken for virus and bacteria. They were started on Trimethoprim 200 mg twice daily for 5 days."}, "viral replication": {"tested_on": "viral replication", "conditions": "cited from earlier work"}, "[2]": {"conditions": "case (ii) person, day 5 after treatment"}}, "data": [{"smiles": "O=C1O[C@H]([C@@H](O)CO)C(O)=C1O", "note": "[vitamin C]", "values": [{"measurement": "clinical state at day 5 after starting treatment", "setting": "[1]", "value": "not back to normal"}]}, {"smiles": "COc1cc(Cc2cnc(N)nc2N)cc(OC)c1OC", "note": "[trimethoprim, 5-(3,4,5-trimethoxybenzyl)pyrimidine-2,4-diamine]", "values": [{"measurement": "nasal aspirate viral test", "setting": "[1]; case (iii) person, day 5 of treatment", "value": "influenza type B"}, {"measurement": "temperature", "setting": "[1]; case (iii) person, day 5 of treatment, 38.5 C before", "value": 37.8, "unit": "C"}, {"measurement": "clinical state", "setting": "[1]; case (iii) person, 200 mg twice daily, 2 days later", "value": "the same"}, {"measurement": "day of the illness when recovery started", "setting": "[1]; case (iii) person, well enough to go back to work", "value": 14, "unit": "days"}, {"measurement": "clinical state at day 5 after starting treatment", "setting": "[1]", "value": "not back to normal"}]}, {"smiles": "O=S(=O)([O-])[O-].[Zn+2]", "note": "[zinc sulphate]", "values": [{"measurement": "repeat viral test", "setting": "[1]; case (ii) person, 2 days after treatment", "value": "influenza type B"}, {"measurement": "control of symptoms", "setting": "[1]; [2]", "value": "ineffective"}, {"measurement": "nasal aspirate viral test", "setting": "[1]; [2]", "value": "influenza type B"}, {"measurement": "clinical state", "setting": "[1]; case (ii) person, 100 mg twice daily, 2 days after treatment", "value": "the same"}, {"measurement": "day of the illness of return to work", "setting": "[1]; case (ii) person, still feeling unwell", "value": 14, "unit": "days"}]}, {"smiles": "[Zn]", "note": "[zinc]", "values": [{"measurement": "clinical state at day 5 after starting treatment", "setting": "[1]", "value": "not back to normal"}, {"measurement": "concentration in a subject that affects viral replication", "setting": "viral replication", "value": 0.05, "unit": "mMolar"}]}]}
